Measurements reported in patent US20020037903A1, “Use of pyrimidine endothelin antagonists in companion animals” (priority 2000, published 2002).
Read-outs that look alike come from different tables or passages of the source.

What was measured:
[1] = tested on: ET-1-induced pressor response; assay: Test C: inhibition of ET-1-induced pressor response in conscious beagle dogs; assay type: in vivo
Protocol: Inhibition of ET-1-induced Pressor Response in Conscious Beagle Dogs
Studies were performed in surgically prepared conscious beagle dogs (13-17 kg) which were well adjusted to the laboratory environment. Surgical preparation was performed under recovery anaesthesia to insert an indwelling aortic catheter with external access between the scapulae and protruding subcutaneous ECG studs, positioned for the recording of lead 11 electrocardiograms. During studies dogs were placed, unrestrained, in “Pavlov” type slings. The aortic catheter was connected to a pressure transducer for the measurement of systemic arterial pressure and ECG studs, via patient cables, to a bio-amplifier for the recording of electrocardiograms. ET-1 was administered as a 15 min infusion (25 pmoles/kg/min) via a temporary catheter inserted into the saphenous vein. Test compound or placebo was administered by oral gavage (0.5 or 2.0 mg/kg) at 1 and 24 hours prior to the infusion of ET-1. Individual studies investigated no more than a single dose of test compound or placebo at any one time. Systemic arterial pressure and electrocardiograms were recorded for one hour prior to and one hour after the start of the infusion of ET-1. Test compounds were evaluated by comparing the effects of placebo or test compound on the magnitude of pressor response elicited by ET-1.

[2] = Test B(b): plasma protein binding by equilibrium dialysis; assay type: in vitro ADME; conditions: dog, canine plasma
Text: (b) Determination of plasma protein binding by equilibrium dialysis
An example of a method used is described below.
Plasma containing the test compound was placed in a chamber (half-cell), separated by a semi-permeable membrane (Spectra/Por™ 1 47 mm diam MWCO 6-8000) from isotonic buffer at physiological pH in the other half-cell. The system was allowed to equilibrate, such that low molecular weight compounds distributed evenly between the two chambers (plasma and buffer), whilst high molecular weight molecules were restricted to the plasma chamber. At equilibrium the concentration of the unbound test compound is the same on either side of the membrane. The concentration of total test compound in each half-cell was then determined (using essentially the described above) and the extent of plasma protein binding calculated.
The Spectra/Por™ Equilibrium Dialyzer used to determine protein binding was supplied by NBS Biologicals.

[3] = tested on: dog renal artery strips (ET-1-induced contraction); assay: Test A: inhibition of contraction induced by ET-1 in dog renal artery strips to generate Kb values; assay type: cell-based, beagle dogs; conditions: Canis lupus familiaris, 1.25 h, ET-1 contraction, 75 minutes incubation with test compound, single concentration, read-out: Apparent Kb
Text: Inhibition of Contraction Induced by ET-1 in Dog Renal Artery Strips to Generate Kb Values
A Kb value is a measure of functional activity, and this is taken to be the free plasma concentration of a test compound required to provide efficacy.
Renal arteries from beagle dogs (body weight 9-15 kg) were cut into spirals and divided into 5 mm long strips. The side of each strip that was adjacent to the lumen of the vessel was gently rubbed to remove the endothelium. […] The tension generated by each strip was recorded isometrically. After incubating the tissues with test compound for 75 minutes, cumulative concentration response curves were constructed to ET-1 in the presence of 10 μM Bestatin, 10 μM Captopril, 10 μM Thiorphan, 50 μM indomethacin and 0.001% BSA. Only a single ET-1 curve was constructed in each tissue and tension increases expressed as a percentage of the response to 120mM KCl determined before the addition of the test compound. […] This is the ratio of the EC50 in the presence of the test compound divided by the EC50 in its absence. The DR is then put into the following equation:
apparent pKb=log(DR−1)−log[B] (where B=molar concentration of test compound)

[4] = tested on: dogs with pacing-induced CHF; assay: Congestive heart failure induced by rapid ventricular pacing in dogs; assay type: in vivo
Protocol: A group of animals receiving ACE-inhibitor treatment served as positive control.
Heart failure was induced by rapid ventricular pacing, which is a well established and extensively documented model It is the only heart failure model that allows control of the degree of heart failure by adjusting the pacing rate.
Dogs were paced throughout the study at pacing rates up to 220-240 bpm leading to steadily progressing CHF.
Group 1: Placebo (Furosemide 4 mg/kg/day BID per os, n=6)
Group 2: ET-receptor antagonist (2 mg/kg/day SID per os+Furosemide as above, n=6)
Group 3: Enalapril maleate (1 mg/kg/day BID per os+Furosemide as above)
(n=6, positive control) was initiated 2 weeks after start of pacing and continued for 3 weeks.
Throughout the study, both clinical parameters (heart murmurs, edema formation, dyspnoe) as well as haemodynamic (CO, blood pressure, cardiac contractility, and heart rate) and humoral parameters (plasma catecholamines, ANF, ET-1) were measured to determine morbidity and quality of life of the animals.
Dosing of the animals during the 3-week treatment period took place BID@8 am and 4 pm:
Improvement in cardiac function is illustrated by the effect of Compound X on the left ventricular enddiastolic pressure (LVEDP) in resting dogs before and during progressive CHF induced by pacing at […]. Test compounds were given for 3 weeks while pacing continued. In the graph below, the Y-axis is LVEDP in mm, and the X-axis is the time in weeks. […] [In the study, 5 dogs were treated with placebo, 3 dogs were treated with enalapril, and 5 dogs were treated with Compound X] [drawing 5]
Dogs were paced for 2 weeks to develop CHF and then assigned to oral gavage treatment with either placebo (vehicle), Compound X (2 mg/kg/day, sid), or enalapril (1 mg/kg/day, bid). In addition, all animals received the diuretic furosemide (4 mg/kg/day, bid) throughout treatment period. During the 3-week treatment period, rapid ventricular pacing was continued. Pacing led to deterioration of myocardial and circulatory function with progression of CHF as indicated by increases in left ventricular enddiastolic pressure (LVEDP) and reductions of cardiac contractility and output. In addition, all animals were assessed for clinical parameters of CHF by an independent veterinarian.
Throughout the study dogs were studied twice weekly at rest and during standardised exercise on a treadmill at two different speeds.

[5] = Test B: pharmacokinetic study in the dog, plasma concentrations after i.v. infusion; assay type: in vivo; conditions: for Estimated % of Kb at 24 hours following 2.0 mg/kg i.v. dose: 0.5 mg/kg value multiplied by 4; for % of Kb at 24 hours following 0.5 mg/kg i.v. dose: free plasma concentration as percentage of Kb from Test A; for concentration at 24 h: plasma, intravenous, 0.5 mg/kg
Protocol: In order to assess the potential of test ET antagonists to provide efficacy, a pharmacokinetic study in the dog was carried out.
Blood samples were taken at various time points and centrifuged to provide plasma samples. These samples were analysed using Mass Spectrometry to provide total plasma concentrations.
Total plasma concentrations in the dog were determined by comparison with the standard line constructed (using the spiked plasma samples) to cover the expected concentration range.
(c) Calculation of free plasma concentrations [formula] or % protein bound=(1−Fu)×100
The free plasma concentrations of the compound can then be determined.
Free plasma concentration=total plasma concentration (from method (a))×fraction unbound (from method (b))

ETA/B receptor = conditions: hypertensive patients; cited from earlier work
heart disease in dogs = conditions: veterinary clinical trial, dogs with heart disease; cited from earlier work
neointimal formation = conditions: after balloon angioplasty; cited from earlier work
ETB receptors = molecular target: T1, ETB receptors (Homo sapiens, UniProt P24530); conditions: in man; cited from earlier work
T1 construct: host or cells: man (in vivo)
T1 sequence (P24530 27-442): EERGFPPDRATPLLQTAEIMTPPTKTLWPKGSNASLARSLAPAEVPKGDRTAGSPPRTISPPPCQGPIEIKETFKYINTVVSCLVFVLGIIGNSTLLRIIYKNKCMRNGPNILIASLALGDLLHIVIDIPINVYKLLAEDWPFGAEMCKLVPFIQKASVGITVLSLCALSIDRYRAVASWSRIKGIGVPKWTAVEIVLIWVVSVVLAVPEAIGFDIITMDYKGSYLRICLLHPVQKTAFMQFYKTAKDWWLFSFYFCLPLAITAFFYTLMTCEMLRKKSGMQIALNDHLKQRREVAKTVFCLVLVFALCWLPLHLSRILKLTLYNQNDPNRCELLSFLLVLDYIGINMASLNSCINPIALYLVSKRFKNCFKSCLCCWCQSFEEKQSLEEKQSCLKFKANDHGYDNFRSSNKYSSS

[6] = 2 mg/kg/day sid p.o. plus furosemide, 3 weeks
[7] = 0.5 mg/kg i.v. infusion over 10 minutes, read-out: Total plasma concentration at 24 hours following 0.5 mg/kg iv dose
[8] = total plasma concentration x fraction unbound, read-out: Free concentration at 24 hours following 0.5 mg/kg i.v. dose

Structure (SMILES) | fraction unbound [2] | Kb [3] [nM] | Estimated % of Kb at 24 hours following 2.0 mg/kg i.v. dose [5] [%] | % of Kb at 24 hours following 0.5 mg/kg i.v. dose [5] [%] | concentration at 24 h [5, 7] [nM] | concentration at 24 h [5, 8] [nM] | other results
COc1ccccc1Oc1c(NS(=O)(=O)CCc2ccccc2)nc(-c2ncccn2)nc1OC [Compound X, N-[6-methoxy-5-(2-methoxyphenoxy)-2-(2-pyrimidinyl)-4-pyrimidinyl]-2-phenylethansulphonamide] | 0.09 | 86 | 196 | 49 | 466 | 41.9 | Change in arterial pressure elicited by ET-1 ([1]; 0.5 mg/kg p.o., 1 hour prior to ET-1 infusion): 3 ΔmmHg; Change in arterial pressure elicited by ET-1 ([1]; 2.0 mg/kg p.o., 24 hours prior to ET-1 infusion): 3 ΔmmHg; inhibition at 0.5 mg/kg ([1]; Canis lupus familiaris, po, 0.5 mg/kg p.o., 1 hour prior to ET-1 infusion): 76%; inhibition at 2 mg/kg ([1]; Canis lupus familiaris, po, 2.0 mg/kg p.o., 24 hours prior to ET-1 infusion): 80%; Arterial blood pressure (BP) [4, 6]: lower arterial blood pressure; Cardiac output [4, 6]: maintained or even increased cardiac output; LVEDP at rest and during treadmill exercise [4, 6]: significantly improved LVEDP not only under resting conditions but even more so during treadmill exercise; LVEDP relative to pre-treatment values [4, 6]: lowered LVEDP below pre-treatment values; Left ventricular enddiastolic pressure (LVEDP) in resting dogs ([4]; 2 mg/kg/day sid p.o. plus furosemide, 3 weeks, pacing 210-240 bpm, versus placebo and enalapril): Significant improvements over both placebo and enalapril; Exercise tolerance ([4]; all treated animals, placebo group three out of six developed exercise intolerance): maintained exercise tolerance throughout the study; Heart failure class, NYHA scale (I-IV) ([4]; all treated animals, placebo group three out of six reached class III): class II
COc1ccccc1Oc1c(NS(=O)(=O)c2ccc(C(C)(C)C)cc2)nc(-c2ncccn2)nc1OCCO [Bosentan] | – | – | – | – | – | – | Effect on blood pressure (ETA/B receptor): decreased blood pressure
COc1cc(OC)nc(O[C@H](C(=O)O)C(OC)(c2ccccc2)c2ccccc2)n1 [LU 135,252] | 0.032 | 111 | 4.8 | 1.2 | 40 | 1.3 | –
CCOC(=O)[C@H](CCc1ccccc1)N[C@@H](C)C(=O)N1CCC[C@H]1C(=O)O [enalapril] | – | – | – | – | – | – | Cardiac function (heart disease in dogs): did not improve cardiac function; Disease progression (heart disease in dogs): significant slow down in disease progression
CCCOc1ccc2c(c1)[C@@H](c1ccc(OC)cc1OCC(=O)O)[C@H](C(=O)O)[C@H]2c1ccc2c(c1)OCO2 [SB-209670] | – | – | – | – | – | – | Reduction in neointimal formation relative to control animals (neointimal formation): 50%
COCCOc1nc(-c2ncccn2)nc(NS(=O)(=O)CCc2ccccc2)c1Oc1ccccc1OC [Example 2, WO 98/57938] | 0.12 | 136 | <32 | <8 | < 93 | < 11 | –
CCCC[C@@H](NC(=O)[C@@H](Cc1cn(C(=O)OC)c2ccccc12)NC(=O)[C@H](CC(C)(C)C)NC(=O)N1[C@H](C)CCC[C@@H]1C)C(=O)O [BQ-788] | – | – | – | – | – | – | Effect on peripheral resistance (ETB receptors): increase peripheral resistance
